According to PMC11831592, “Repurposing Linezolid in Conjunction with Histone Deacetylase Inhibitor Access in the Realm of Glioblastoma Therapies” (Journal of Medicinal Chemistry, 2025):

Columns and labels:
[1] = system: PT#3-R TMZ-resistant GBM cell line; test: cells; format: cell-based; details: MTT
Experimental: The cytotoxic effects of these compounds were assessed using the MTT assay (Table 1 and Supporting Information IV).
MTT assay was employed to evaluate the cytotoxicity of the synthesized compound against resistant GBM cells. The MTT (3-(4,5-dimethylthiazol-2-yl)-2,5-diphenyltetrazolium bromide, catalog no. AM0818-0005) powder was purchased from BIONOVAS (Ontario, Canada). The MTT was prepared at 10 mg/mL stock with ultrapure water and then stored at −20 °C. […] Before the experiment, the MTT stock was 10-fold diluted with the culture medium and then incubated with cells for 30 min. After the incubation, the MTT medium was discarded and added 300 μL of dimethyl sulfoxide (DMSO, cat. no. D2650, Sigma-Aldrich, MO, USA) to dissolve the cells.

[2] = Pharmacokinetic study in Sprague-Dawley rats; format: in vivo; details: male, plasma, rat, 10 mg/kg intravenous
Experimental: The pharmacokinetic study protocol of compound 1 was approved by the IACUC of TMU (LAC-2022-0452), in compliance with National Research Council’s Guide for the Care and Use of Laboratory Animal. 8 Week-old male Sprague–Dawley rats were provided by BioLASCO (Taipei, Taiwan). Each rat (n = 3) was intravenously administered with a single dosage of 10 mg/kg A089 through the jugular vein. Blood samples were collected from the jugular vein at predetermined time points: 0.03, 0.08, 0.25, 0.5, 1, 2, 4, 6, 8, 12, and 24 h postadministration. The blood samples were centrifuged at 4 °C to obtain the plasma samples. For protein precipitation, an aliquot of acetonitrile was added to the plasma, followed by centrifugation and filtration using a 0.22 μm filter. The filtrate was then analyzed by ultraperformance liquid chromatography–tandem mass spectrometry (UPLC–MS/MS, TQ-XS, Waters Corp., Manchester, UK). Pharmacokinetic parameters were calculated by using a noncompartmental analysis with Phoenix WinNonlin software (Certara, Princeton, NJ, USA).

[3] = system: LN229 GBM cells; test: CCK8 cell proliferation assay, LN229; format: cell-based; details: Homo sapiens, LN-229; LN229, CCK8, 72 h
Experimental: (§1) Cell viability and drug cytotoxicity were determined by a CCK-8 kit (Cell Counting Kit-8, CK04-13, MD, USA) (CCK8, C0005, Target Molecule Corp., MA, USA) reagent. Cells were seeded 2 × 10^3 per well in the 96-well plate for 24 h, followed by treating at different concentrations of compounds for 72 h. Before the experiment, CCK8 was 10-fold diluted with the culture medium and then incubated with cells for 30 min. Finally, the OD was 450 nm absorbance and calculated for cell viability.

[4] = system: CT-2A-R astrocytoma cells; test: Orthotopic CT-2A-R tumor model, IVIS; format: in vivo, mouse; details: 50 mg/kg orally
Experimental: Animals were imaged using an IVIS to monitor tumor growth and target expression changes. Initially, animals were anesthetized with isoflurane prior to imaging to minimize movement artifacts. D-luciferin (150 mg/kg) was then administered via an intraperitoneal injection. After 60 s, animals were positioned on the imaging platform, and images were acquired with a 10-s exposure. Experimental data were collected and quantified for fluorescence or bioluminescence signals by using Living Image software in the IVIS system. After each imaging session, animal ID, imaging parameters, and imaging time were recorded for subsequent analysis.
For orthotopic inoculation, CT-2A cells (1 × 10^5) or CT-2A-R (2 × 10^5) were suspended in 4 μL of DMEM and implanted into the brain of B6 mice. PT#3-R cells (5 × 10^5) were suspended in 4 μL of DMEM and implanted into the brain of SCID mice. After cell implantation, mice were monitored daily for survival, and their body weight was measured every 3 days starting from the seventh day. The oral vehicle consisted of 40% ethyl oleate, 12% lecithin, 20% propylene glycol, and 28% Triton X-100. Mice were administered 5 μL of vehicle per gram of body weight along with 50 mg/kg TMZ or a combination of TMZ and compound 1. Intraperitoneal injections were administered with DMSO (solvent control), TMZ (10 μg/kg), TMZ (10 μg/kg), and compound 1 (10 or 20 μg/kg). […]

[5] = system: PT#3R cells; test: Cell cycle analysis by flow cytometry; format: cell-based, human; details: 72 h
Experimental: To measure the cell cycle, cells were seeded 5 × 10^4 per well in a 12-well plate for 24 h, followed by treatment of the different concentrations of compounds for 72 h. Next, the cells were fixed with 70% ethanol and stored at −20 °C for at least 24 h. After washing, the cells were stained with 30 μg/mL propidium iodide (PI, Cat# P4170, Sigma-Aldrich) and contented 10 ng/mL RNaseA (Cat# R6148, Sigma-Aldrich) for 30 min, followed by detection using flow cytometry Guava easyCyte Flow Cytometers and then analyzed by the Guava easyCyte System 3.3 (Cytec Industries Incorporated, NJ, USA).

[6] = Adverse reactions in treated tumor-bearing mice; format: in vivo; details: mice of the orthotopic tumor models
Experimental: For orthotopic inoculation, CT-2A cells (1 × 10^5) or CT-2A-R (2 × 10^5) were suspended in 4 μL of DMEM and implanted into the brain of B6 mice. PT#3-R cells (5 × 10^5) were suspended in 4 μL of DMEM and implanted into the brain of SCID mice. After cell implantation, mice were monitored daily for survival, and their body weight was measured every 3 days starting from the seventh day. The oral vehicle consisted of 40% ethyl oleate, 12% lecithin, 20% propylene glycol, and 28% Triton X-100. Mice were administered 5 μL of vehicle per gram of body weight along with 50 mg/kg TMZ or a combination of TMZ and compound 1. Intraperitoneal injections were administered with DMSO (solvent control), TMZ (10 μg/kg), TMZ (10 μg/kg), and compound 1 (10 or 20 μg/kg). Upon the natural death of the mice, brains were extracted and entrusted to BioTools for sectioning and HE staining.
Supplementary information VIII. Body weight changes in mice administered with vehicle, TMZ, and Compound 1 in vivo.
S-VIII-1. Body weight changes in mice administered with DMSO, TMZ, and Compound 1 intraperitoneally following orthotopic CT-2A tumor implantation .
S-VIII-2. Body weight changes in mice administered with vehicle, TMZ, and Compound 1 intraperitoneally following orthotopic CT-2AR tumor implantation.
S-VIII-3. […]

[7] = system: histones H3 and H4 in U87MGR GBM cells; test: Western blot of histone H3 and H4 acetylation; format: cell-based, human; details: 10 μM, within 1 h
Experimental: The experimental procedure was performed as described in our previous study.[41] On the day prior to the experiment, […] cells were seeded into each well of a 6-well plate. The following day, the cells were washed twice with PBS and treated with 10 μM compound 1. The acetylation status of histones H3 and H4, DNA repair, and protein stability assay were assessed at 0–24 h post-treatment. The antibody models and dilution ratios used are detailed in Table S1. Protein image collection and quantification were done by the ChemiDoc Touch Imaging System (Cat. No. 12676029, Bio-Rad Laboratories, Inc., CA, USA).

[8] = system: PT#3; test: CCK8 cell proliferation assay, PT#3; format: cell-based; details: Homo sapiens; PT#3, CCK8, 72 h
Experimental: as §1

SMILES: O=C(/C=C/c1ccc(CNC[C@H]2CN(c3ccc(N4CCOCC4)c(F)c3)C(=O)O2)cc1)NO [compound 1, (S,E)-3-(4-((((3-(3-Fluoro-4-morpholinophenyl)-2-oxooxazolidin-5-yl)methyl)ami-no)methyl)phenyl)-N-hydroxyacrylamide]
- IC50 ([1]; Homo sapiens, 72 h): 12.1 ± 1.48 µM
- cytotoxic effect on resistant GBM cells ([1]; 20 μM and above): significant cytotoxic effect
- AUC(0-inf) at 24 h [2]: 2280 ± 760 ng·h/mL
- AUC(0-t) at 24 h [2]: 2010 ± 530 ng·h/mL
- C0 at 24 h [2]: 12300 ± 8130 ng/mL
- MRT inf at 24 h [2]: 7.91 ± 3.11 h
- Vd at 24 h [2]: 76.2 ± 12.3 L/kg
- clearance at 24 h [2]: 78 mL/min/kg
- half-life at 24 h [2]: 12 ± 4.42 h
- IC50 [3]: 15.7 ± 0.93 µM
- growth of orthotopic tumors (IVIS) [4]: effectively inhibited the growth of orthotopic tumors
- cell cycle distribution [5]: G2/M phase arrest and increases in the sub-G1 cell population
- adverse reactions during the treatment period [6]: without adverse reactions observed
- acetylation in histones H3 and H4 [7]: significant induction of acetylation
- IC50 [8]: 10.3 ± 0.52 µM
